According to patent US20230141569A1, “FLUORESCENT DYE, AND PREPARATION METHOD AND USES THEREOF” (FLUORESCENCE DIAGNOSIS (SHANGHAI) BIOTECH COMPANY LTD., priority 2020, published 2023):

Assays:
[1] = test system: mRNA of ACTB; assay: Flow detection of mRNA labeling in 293T/17 cells (Test Example 5); assay type: cell-based; conditions: 0.2 μM in PBS, 5 minutes incubation; for background fluorescence in flow detection: 293T/17 control cells
Excerpt: FIGS. 21A and 21B are a flow detection diagram for molecular rotors IV-21 and IV-41 for labeling mRNA.

[2] = Viscosity response: fluorescence in glycerin vs methanol (Test Example 1); assay type: physicochemical; conditions: final concentration 1×10^−5 M; for Glycerin/Methanol Fluorescence Intensity Ratio: excited at maximum excitation wavelength of each dye; for Maximum Excitation Wavelength (nm): glycerin and methanol
[3] = Fluorescence emission at different viscosity conditions, diethanol-glycerol mixed solution (Test Example 2); assay type: physicochemical; conditions: 1×10^−5 M, excited at 480 nm
[4] = test system: RNA aptamer; assay: Optical properties after binding to RNA aptamer (Test Example 4); assay type: biochemical; conditions: for Em/nm / Ex/nm / ε / QY (−): after binding to RNA aptamer; for QY (−): relative method with Rhodamine 6G as the standard; for compound fluorescence after binding to RNA aptamer: excited at a suitable wavelength
[5] = test system: RNA aptamer; assay: Labeling intracellular RNA aptamer in cells (Test Example 4, FIG. 20A/20B); assay type: cell-based; conditions: for fluorescence of cells expressing the RNA aptamer: FIG. 20A; for fluorescence of cells not expressing the RNA aptamer: FIG. 20B
Excerpt: FIGS. 20A and 20B are the application of molecular rotors IV-1, IV-2, IV-3, IV-4, IV-5, IV-6, IV-17, IV-18, IV-19, IV-20, IV-21, IV-22 in labeling intracellular RNA aptamer, wherein FIG. 20A are cells expressing the target RNA aptamer, and FIG. 20B are cells not expressing the target RNA aptamer;

Structure (SMILES) | background fluorescence in flow detection [1] | Glycerin/Methanol Fluorescence Intensity Ratio [2] | Maximum Excitation Wavelength (nm) [2] | fluorescence intensity at different viscosity conditions [3] | Em/nm [4] | Ex/nm [4] | ε [4] | QY (−) [4] | compound fluorescence after binding to RNA aptamer [4] | fluorescence of cells expressing the RNA aptamer [5] | fluorescence of cells not expressing the RNA aptamer [5] | labeling of mRNA of ACTB in cell lines expressing target RNA ([1]; 293T/17, flow detection)
CN1C(=O)/C(=C/c2ccc(N(C)CCO)cc2)N=C1/C=C/c1ccccc1 [IV-41, reference compound] | higher than that of IV-21 | – | – | – | – | – | – | – | – | – | – | –
CN1C(=O)/C(=C/c2ccc(N(C)CCO)cc2)N=C1/C=C/c1ccc(C#N)cc1 [IV-21] | no obvious background fluorescence | 655 | 624 nm | gradually increasing fluorescence intensity | 624 nm | 534 nm | 26222 M⁻¹ cm⁻¹ | 0.28 | noticeably activated | bright fluorescence | no fluorescence | could specifically label mRNA of ACTB
CN1C(=O)/C(=C/c2ccc(N(C)CCO)cc2)N=C1/C=C/c1ccc(F)cc1 [IV-22] | – | 689 | 580 nm | gradually increasing fluorescence intensity | 580 nm | 522 nm | 32000 M⁻¹ cm⁻¹ | 0.46 | noticeably activated | bright fluorescence | no fluorescence | –
CN1C(=O)/C(=C/c2cc(F)c(O)c(F)c2)N=C1/C=C/c1ccc(O)cc1 [IV-3] | – | 951 | 565 nm | gradually increasing fluorescence intensity | 565 nm | 490 nm | 26000 M⁻¹ cm⁻¹ | 0.27 | noticeably activated | bright fluorescence | no fluorescence | –
CN1C(=O)/C(=C/c2cc(F)c(O)c(F)c2)N=C1/C=C/c1cccc(C#N)c1 [IV-2] | – | 687 | 595 nm | gradually increasing fluorescence intensity | 595 nm | 492 nm | 25000 M⁻¹ cm⁻¹ | 0.36 | noticeably activated | bright fluorescence | no fluorescence | –
CN1C(=O)/C(=C/c2cc(F)c(O)c(F)c2)N=C1/C=C/c1cccc(F)c1 [IV-6] | – | 921 | 578 nm | gradually increasing fluorescence intensity | 578 nm | 490 nm | 24000 M⁻¹ cm⁻¹ | 0.37 | noticeably activated | bright fluorescence | no fluorescence | –
CN1C(=O)/C(=C/c2ccc(N(C)CCO)cc2)N=C1/C=C/c1cccc(C#N)c1 [IV-18] | – | 890 | 595 nm | gradually increasing fluorescence intensity | 600 nm | 536 nm | 25000 M⁻¹ cm⁻¹ | 0.43 | noticeably activated | bright fluorescence | no fluorescence | –
